Results published in patent US10450297B2, “Sulfonyl amide derivatives for the treatment of abnormal cell growth” (Pfizer, Inc., priority 2007, dated 2019).

Biological target: FAK kinase (catalytic construct FAK(410-689)) (Homo sapiens (Human), UniProt Q05397)
Assay: FAKcd kinase ELISA (inhibition of poly-glu-tyr phosphorylation by FAK(410-689))
Format: biochemical
Details: 50 μM final ATP

FAK kinase (catalytic construct FAK(410-689)), sequence (Q05397 410-689): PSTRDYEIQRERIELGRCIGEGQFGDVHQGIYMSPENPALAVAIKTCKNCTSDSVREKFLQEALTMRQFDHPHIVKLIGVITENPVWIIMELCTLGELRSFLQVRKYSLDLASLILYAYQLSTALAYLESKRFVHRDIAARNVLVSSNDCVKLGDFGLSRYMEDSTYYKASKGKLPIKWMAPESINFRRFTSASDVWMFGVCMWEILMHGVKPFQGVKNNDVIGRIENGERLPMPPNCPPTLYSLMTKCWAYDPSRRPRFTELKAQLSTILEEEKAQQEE

| Compound | IC50 [nM] |
| --- | --- |
| CN(C)C1CN(C(=O)c2cccc(Nc3ncc(C(F)(F)F)c(NCc4cccnc4N(C)S(C)(=O)=O)n3)c2)C1 [Compound 165, N-{3-[({2-[(3-{[3-(dimethylamino)azetidin-1-yl]carbonyl}phenyl)amino]-5-(trifluoromethyl)pyrimidin-4-yl}amino)methyl]pyridin-2-yl}-N-rnethylmethane-sulfonamide] | 4.93 |
| CN(c1ncccc1CNc1nc(Nc2ccc(S(C)(=O)=O)nc2)ncc1C(F)(F)F)S(C)(=O)=O [Compound 23, N-methyl-N-[3-({[2-{[6-(methylsulfonyl)pyridin-3-yl]amino}-5-(trifluoromethyl)pyrimidin-4-yl]amino}methyl)pyridin-2-yl]methanesulfonamide] | 68.6 |
| CNC(=O)c1ccc(Nc2ncc(C(F)(F)F)c(NCc3nccnc3N(C)S(C)(=O)=O)n2)cc1C [Compound 400, N,2-dimethyl-4-({4-[({3-[methyl(methylsulfonyl)amino]pyrazin-2-yl)methyl)amino]-5-(trifluoromethyl)pyrimidin-2-yl}amino)benzamide] | 0.66 |
| CN(c1ncccc1CNc1nc(Nc2cccc(C(=O)N3CC[C@H](O)C3)c2)ncc1C(F)(F)F)S(C)(=O)=O [Compound 157, N-{3-[({2-[(3-{[(3S)-3-hydroxypyrrolidin-1-yl]carbonyl}phenyl)amino]-5-(trifluoromethyl)pyrimidin-4-yl}amino)methyl]pyridin-2-yl}-N-methylmethane-sulfonamide] | 4.24 |
| CNC(=O)c1ccc(Nc2ncc(C(F)(F)F)c(NCc3nccnc3N(C)S(C)(=O)=O)n2)c(C)c1 [Compound 401, N,3-dimethyl-4-({4-[({3-[methyl(methylsulfonyl)amino]pyrazin-2-yl}methyl)amino]-5-(trifluoromethyl)pyrimidin-2-yl}amino)benzamide] | 1.17 |
| Cc1ccc(CNc2nc(Nc3ccc(C(=O)N(C)C)cc3)ncc2C(F)(F)F)c(N(C)S(C)(=O)=O)n1 [Compound 231, N,N-dimethyl-4-({4-[({6-methyl-2-[methyl(methylsulfonyl)amino]pyridin-3-yl}methyl)amino]-5-(trifluoromethyl)pyrimidin-2-yl}amino)benzamide] | 0.6 |
| CCOC(=O)[C@H]1CC[C@@H](Nc2ncc(C(F)(F)F)c(NCc3cccnc3N(C)S(C)(=O)=O)n2)CC1 [Compound 60, ethyl cis-4-({4-(({2-[methyl(methylsulfonyl)amino]pyridin-3-yl}methyl)amino]-5-(trifluoromethyl)pyrimidin-2-yl}amino)cyclohexanecarboxylate] | 188 |
| Cc1ncc(CNc2nc(Nc3ccc(C(N)=O)cc3)ncc2C(F)(F)F)c(N(C)S(C)(=O)=O)n1 [Compound 84, 4-({4-[({2-methyl-4-[methyl(methylsulfonyl)amino]pyrimidin-5-yl}methyl)amino]-5-(trifluoromethyl)pyrimidin-2-yl}amino)benzamide] | 1.71 |
| Cc1cccc(CNc2nc(Nc3ccccc3)ncc2C(F)(F)F)c1N(C)S(C)(=O)=O [Compound 64, N-[2-({[2-anilino-5-(trifluoromethyl)pyrimidin-4-yl)amino}methyl)-6-methylphenyl]-N-methylmethanesulfonamide] | 0.6 |
| CN(c1ncccc1CNc1nc(Nc2cccc(C(=O)Nc3cccc(C(F)(F)F)c3)c2)ncc1C(F)(F)F)S(C)(=O)=O [Compound 88, 3-({4-[({2-[methyl(methylsulfonyl)amino]pyridin-3-yl}methyl)amino]-5-(trifluoromethyl)pyrimidin-2-yl}amino)-N-[3-(trifluoromethyl)phenyl]benzamide] | 21.5 |
| CN(c1ncccc1CNc1nc(Nc2ccc(CNC(CO)CO)cc2)ncc1C(F)(F)F)S(C)(=O)=O [Example 8, N-(3-((2-(4-((1,3-dihydroxypropan-2-ylamino)methyl)phenylamino)-5-(trifluoromethyl)pyrimidin-4-ylamino)methyl)pyridin-2-yl)-N-methylmethanesulfonamide] | < 0.595 |
| CN(c1ncccc1CNc1nc(Nc2cccc(C(=O)NCc3ccccn3)c2)ncc1C(F)(F)F)S(C)(=O)=O [Compound 139, 3-({4-[({2-[methyl(methylsulfonyl)amino]pyridin-3-yl}methyl)amino]-5-(trifluoromethyl)pyrimidin-2-yl}amino)-N-(pyridin-2-ylmethyl)benzamide] | 1.91 |
| CN(c1ncccc1CNc1nc(Nc2ccc(C(=O)NC[C@H]3CCCO3)cc2)ncc1C(F)(F)F)S(C)(=O)=O [Compound 238, 4-({4-[({2-[methyl(methylsulfonyl)amino]pyridin-3-yl}methyl)amino]-5-(trifluoromethyl)pyrimidin-2-yl}amino)-N-[(2R)-tetrahydrofuran-2-ylmethyl]benzamide] | 1.25 |
| CN(c1ncccc1CNc1nc(Nc2ccc(C(=O)N3C[C@@H](F)[C@H](F)C3)cc2)ncc1C(F)(F)F)S(C)(=O)=O [Compound 232, N-{3-[({2-[(4-{[(3R,4R)-3,4-difluoropyrrolidin-1-yl]carbonyl}phenyl)amino]-5-(trifluoromethyl)pyrimidin-4-yl}amino)methyl]pyridin-2-yl}-N-methylmethane-sulfonamide] | 2.62 |
| C[C@@H]1COCCN1C(=O)c1cccc(Nc2ncc(C(F)(F)F)c(NCc3cccnc3N(C)S(C)(=O)=O)n2)c1 [Compound 207, N-methyl-N-{3-[({2-[(3-{[(3R)-3-methylmorpholin-4-yl]carbonyl}phenyl)amino]-5-(trifluoromethyl)pyrimidin-4-yl}amino)methyl]pyridin-2-yl}methanesulfonamide] | 2.78 |
| C[C@H](N)c1ccc(Nc2ncc(C(F)(F)F)c(NCc3nccnc3N(C)S(C)(=O)=O)n2)cc1 [Compound 355, N-[3-({[2-({4-((1S)-1-aminoethyl]phenyl}amino)-5-(trifluoromethyl)pyrimidin-4-yl]amino}methyl)pyrazin-2-yl]-N-methylmethane-sulfonamide] | < 0.595 |
| CN(c1cccc(CNc2nc(Nc3ccc(C#N)c(O)c3)ncc2C(F)(F)F)c1)S(C)(=O)=O [Compound 392, N-{3-[({2-[(4-cyano-3-hydroxyphenyl)amino]-5-(trifluoromethyl)pyrimidin-4-yl}amino)methyl]phenyl}-N-methylmethanesulfonamide] | 4.51 |
| Cc1cc(N(C)S(C)(=O)=O)c(CNc2nc(Nc3ccccc3)ncc2C(F)(F)F)cn1 [Compound 80, N-[5-({[2-anilino-5-(trifluoromethyl)pyrimidin-4-yl]amino}methyl)-2-methylpyridin-4-yl]-N-methylmethanesulfonamide] | 0.59 |
| CN(c1cccnc1CNc1nc(Nc2ccc(F)c(C(N)=O)c2)ncc1C(F)(F)F)S(C)(=O)=O [Compound 381, 2-fluoro-5-({4-[({3-[methyl(methylsulfonyl)amino]pyridin-2-yl}methyl)amino]-5-(trifluoromethyl)pyrimidin-2-yl}amino)benzamide] | 4.55 |
| Cc1cccc(NS(C)(=O)=O)c1CNc1nc(Nc2ccccc2)ncc1C(F)(F)F [Compound 69, N-[2-({[2-anilino-5-(trifluoromethyl)pyrimidin-4-yl]amino}methyl)-3-methylphenyl]methane-sulfonamide] | 0.6 |
| CN(c1ncccc1CNc1nc(Nc2cccc(CNS(=O)(=O)C(F)(F)F)c2)ncc1C(F)(F)F)S(C)(=O)=O [Compound 303, 1,1,1-trifluoro-N-[3-({4-[({2-[methyl(methylsulfonyl)amino]pyridin-3-yl}methyl)amino]-5-(trifluoromethyl)pyrimidin-2-yl}amino)benzyl]methanesulfonamide] | 0.727 |
| CCNC(=O)c1ccc(Nc2ncc(C(F)(F)F)c(NCc3ncccc3N(C)S(C)(=O)=O)n2)cc1 [Compound 97, N-ethyl-4-({4-[({3-[methyl(methylsulfonyl)amino]pyridin-2-yl}methyl)amino]-5-(trifluoromethyl)pyrimidin-2-yl}amino)benzamide] | 0.59 |
| CC(C)NCc1ccc(Nc2ncc(C(F)(F)F)c(NCc3cccnc3N(C)S(C)(=O)=O)n2)cc1 [Compound 384, N-[3-({[2-({4-[(isopropylamino)methyl]phenyl}amino)-5-(trifluoromethyl)pyrimidin-4-yl]amino}methyl)pyridin-2-yl]-N-methylmethane-sulfonamide] | < 0.595 |
| Cc1ccc(N(C)S(C)(=O)=O)cc1CNc1nc(Nc2ccccc2)ncc1C(F)(F)F [Compound 63, N-[3-({[2-anilino-5-(trifluoromethyl)pyrimidin-4-yl]amino}methyl)-4-methylphenyl]-N-methylmethanesulfonamide] | 0.6 |
| CN(c1ncccc1CNc1nc(Nc2ccc(C(=O)N3CCNC(=O)C3)cc2)ncc1C(F)(F)F)S(C)(=O)=O [Compound 254, N-methyl-N-[3-({[2-({4-[(3-oxopiperazin-1-yl)carbonyl]phenyl}amino)-5-(trifluoromethyl)pyrimidin-4-yl]amino}methyl)pyridin-2-yl]methanesulfonamide] | 1.33 |
| CN(c1nccnc1CNc1nc(Nc2ccc(C#N)c(O)c2)ncc1C(F)(F)F)S(C)(=O)=O [Compound 391, N-{3-[({2-[(4-cyano-3-hydroxyphenyl)amino]-5-(trifluoromethyl)pyrlmldin-4-yl}amino)methyl]pyrazin-2-yl}-N-methylmethane-sulfonamide] | 1.24 |
| CN(c1cccnc1CNc1nc(Nc2ccc(C(N)=O)cc2)ncc1C(F)(F)F)S(C)(=O)=O [Compound 73, 4-({4-(({3-[methyl(methylsulfonyl)amino]pyridin-2-yl}methyl)amino]-5-(trifluoromethyl)pyrimidin-2-yl}amino)benzamide] | 0.6 |
| CN(c1ncccc1CNc1nc(Nc2cccc(C(=O)N3CCC(C)(O)C3)c2)ncc1C(F)(F)F)S(C)(=O)=O (centres unmarked) [Compound 135, N-[3-({(2-({3-[(3-hydroxy-3-methyipyrrolidin-1-yl)carbonyl]phenyl}amino)-5-(trifluoromethyl)pyrimidin-4-yl]amino}methyl)pyridin-2-yl]-N-methylmethane-sulfonamide] | 3.33 |
| CN(c1ncccc1CNc1nc(Nc2ccc(N3CCOCC3)cn2)ncc1C(F)(F)F)S(C)(=O)=O [Compound 293, N-methyl-N-{3-[({2-[(5-morpholin-4-ylpyridin-2-yl)amino]-5-(trifluoromethyl)pyrimidin-4-yl}amino)methyl]pyridin-2-yl]methanesulfonamide] | < 0.595 |
